Results: paper PMC5515971, “Utility of spherical human liver microtissues for prediction of clinical drug-induced liver injury” (Archives of Toxicology, 2017)
Where two headings read alike, the source gives them in different places.

Experiments:
[1] = tested on: primary human hepatocytes (PHH); test: Cytotoxicity (cellular ATP, CellTiter-Glo) in 2D plated primary human hepatocytes, 48 h treatment; assay type: cell-based; settings: for IC50: read-out: Geomean IC50;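 on all read-outs here: 384-well plates, luminescence read-out, normalized to vehicle wells with 1% DMSO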
[2] = ref Chen et al 2016 / Chen et al 2011; cited from earlier work
[3] = cited from earlier work
[4] = cited from earlier work; for DILI category: clinical, from literature and product labels, ref Garside et al. 2014
[5] = tested on: 3D human liver microtissues (hLiMT); test: Cytotoxicity (cellular ATP, CellTiter-Glo 2.0) in 3D human liver microtissues, 14 day repeat-dose treatment
[6] = Hepatocyte, 2D primary human hepatocytes (lot IZT), 48 h treatment, total cellular ATP content
[7] = human Cmax total, used for IC50/Cmax
[8] = human total plasma Cmax, ref literature values
[9] = Table 1, ref Garside et al. (2014)
[10] = clinical DILI severity category, 1-5
[11] = Homo sapiens, Hepatocyte, 336 h, read-out: Geomean IC50 [µM]
[12] = 2D primary human hepatocytes (lot IZT), 48 h treatment, total cellular ATP content
[13] = read-out: Geomean IC50, decrease in total cellular ATP content, hLiMT treated for 14 days, hepatocyte lot IZT (except Dexamethasone) co-cultured with NPCs, n=1 or geometric mean

Row | SMILES | IC50 [1, 6] [µM] | Cmax [3, 7] [µM] | Cmax [3, 8] [µM] | DILI severity category [4, 9] | DILI severity category [4, 10] | DILI category [4] | IC50 [5, 11] [µM] | further results
1 | CC(=O)Oc1ccccc1C(=O)O [Acetylsalicylic acid] | > 1000 | 1110 | 1110 | 3: Low clinical DILI concern (N = 23) | 3. Low Clinical DILI Concern | 3. Low Clinical DILI Concern | > 1000 | FDA DILI Classification DILI severity score [2]: 5
2 | CN(C)CCC=C1c2ccccc2CCc2ccccc21 [Amitriptyline] | 41.8 | 0.721 | 0.72 | 3: Low clinical DILI concern (N = 23) | 3. Low Clinical DILI Concern | 3. Low Clinical DILI Concern | 18.8 | FDA DILI Classification DILI severity score [2]: 5; LTKB DILI classification [2]: less DILI concern
3 | CCN(CC)Cc1cc(Nc2ccnc3cc(Cl)ccc23)ccc1O [Amodiaquine] | 18.5 | 1.91 | 1.91 | 2: High clinical DILI concern (N = 23) | 2. High Clinical DILI Concern | 2. High Clinical DILI Concern | < 7.8 | 
4 | Cn1cnc([N+](=O)[O-])c1Sc1ncnc2nc[nH]c12 [Azathioprine] | > 100 | 7.2 | 7.21 | 2: High clinical DILI concern (N = 23) | 2. High Clinical DILI Concern | 2. High Clinical DILI Concern | 22.2 | FDA DILI Classification DILI severity score [2]: 5; LTKB DILI classification [2]: most DILI concern
5 | CC(C(=O)O)c1ccc2oc(-c3ccc(Cl)cc3)nc2c1 (stereo not shown) [Benoxaprofen] | > 100 | 149 | 149 | 1: Severe clinical DILI (N = 23) | 1. Severe Clinical DILI | 1. Severe Clinical DILI | > 100 | FDA DILI Classification DILI severity score [2]: 8; LTKB DILI classification [2]: most DILI concern
6 | CCc1oc2ccccc2c1C(=O)c1cc(Br)c(O)c(Br)c1 [Benzbromarone] | 171 | 23.6 | 23.6 | 1: Severe clinical DILI (N = 23) | 1. Severe Clinical DILI | 1. Severe Clinical DILI | 11.8 | FDA DILI Classification DILI severity score [2]: 8; LTKB DILI classification [2]: most DILI concern
7 | NC(=O)N1c2ccccc2C=Cc2ccccc21 [Carbamazepine] | > 500 | 50.8 | 50.8 | 2: High clinical DILI concern (N = 23) | 2. High Clinical DILI Concern | 2. High Clinical DILI Concern | 267 | FDA DILI Classification DILI severity score [2]: 7; LTKB DILI classification [2]: most DILI concern
8 | Cc1ccc(-c2cc(C(F)(F)F)nn2-c2ccc(S(N)(=O)=O)cc2)cc1 [Celocoxib] |  | 2.54 | 2.54 | 2: High clinical DILI concern (N = 23) | 2. High Clinical DILI Concern | 2. High Clinical DILI Concern |  | IC50 [1, 12]: 155 µM; IC50 [5, 13]: 26.2 µM
9 | CN1CCN(C2=Nc3cc(Cl)ccc3Nc3ccccc32)CC1 [Clozapine] |  | 2.4 | 2.45 |  |  |  |  | 
10 | O=P1(N(CCCl)CCCl)NCCCO1 (stereo not shown) [Cyclophosphamide] |  |  |  |  |  |  | > 2000 | IC50 ([1]; Homo sapiens, Hepatocyte, 48 h): > 2000 µM; Cmax ([3]; human, in vivo): 143 µM
11 | N[C@@H]1CON=C1O [Cycloserine] | > 10 | 333 | 333 |  |  |  | 7460 | 
12 | C#C[C@]1(O)CC[C@H]2[C@@H]3CCC4=Cc5oncc5C[C@]4(C)[C@H]3CC[C@@]21C [Danazol] | 108 |  | 207 |  |  |  | > 100 | 
13 | CNCCCN1c2ccccc2CCc2ccccc21 [Desipramine] |  | 1.88 | 1.88 | 3: Low clinical DILI concern (N = 23) | 3. Low Clinical DILI Concern | 3. Low Clinical DILI Concern |  | FDA DILI Classification DILI severity score [2]: 3; LTKB DILI classification [2]: Ambiguous DILI concern
14 | C[C@H]1O[C@@H](O[C@H]2[C@@H](O)C[C@H](O[C@H]3[C@@H](O)C[C@H](O[C@H]4CC[C@@]5(C)[C@H](CC[C@@H]6[C@@H]5C[C@@H](O)[C@]5(C)[C@@H](C7=CC(=O)OC7)CC[C@]65O)C4)O[C@@H]3C)O[C@@H]2C)C[C@H](O)[C@@H]1O [Digoxin] |  |  |  |  |  |  | 0.33 | IC50 ([1]; Homo sapiens, Hepatocyte, 48 h): < 0.15 µM; classification at 100 μM IC50 threshold ([1]; PHH 48 h): false positives; classification at 50× MOS threshold ([1]; PHH 48 h): false positive; classification at 100 μM IC50 threshold ([5]; hLiMT 14 days): false positives
15 | CCN1C(=O)NC(c2ccccc2)C1=O (stereo not shown) [Ethotion] | > 1250 | 367 | 367 |  |  |  | > 150 | 
16 | CCOC(=O)C1=C(C)NC(C)=C(C(=O)OC)C1c1cccc(Cl)c1Cl (stereo not shown) [Felodipine] | > 10 | 0.03 | 0.03 |  |  |  | > 10 | 
17 | Cc1onc(-c2c(F)cccc2Cl)c1C(=O)N[C@@H]1C(=O)N2[C@@H]1SC(C)(C)[C@@H]2C(=O)O [Flucloxacillin] | 4670 | 66.1 | 66.1 | 2: High clinical DILI concern (N = 23) | 2. High Clinical DILI Concern | 2. High Clinical DILI Concern | 12200 | 
18 | CNCCC(Oc1ccc(C(F)(F)F)cc1)c1ccccc1 (stereo not shown) [Fluoxetine] |  | 0.05 | 0.05 |  |  |  |  | 
19 | CN1[C@@H]2CC[C@H]1C[C@@H](OC(=O)[C@H](CO)c1ccccc1)C2 [Hyoscyamine (Daturine)] |  |  |  |  |  |  |  | IC50 [1, 12]: > 10 µM; IC50 [5, 13]: > 10 µM

Row | SMILES | IC50 [1, 6] [µM] | Cmax [3, 7] [µM] | Cmax [3, 8] [µM] | DILI severity category [4, 9] | DILI severity category [4, 10] | DILI category [4] | IC50 [5, 11] [µM] | further results
20 | CN(C)CCCN1c2ccccc2CCc2ccccc21 [Imipramine] |  | 0.54 | 0.53 |  |  |  |  | 
21 | C[C@H]1COc2c(N3CCN(C)CC3)c(F)cc3c(=O)c(C(=O)O)cn1c23 [Levofloxacin] | > 500 | 15.8 | 15.8 |  |  |  | > 320 | 
22 | N[C@@H](Cc1cc(I)c(Oc2ccc(O)c(I)c2)c(I)c1)C(=O)O [Liothyronine] |  | 0.00246 | 0.00246 |  |  |  | > 10 | IC50 ([1]; Homo sapiens, Hepatocyte, 48 h): > 10 µM
23 | Nc1cc(N2CCCCC2)nc(N)[n+]1[O-] [Minoxidil] | > 100 | 1.2 | 1.19 |  |  |  | > 100 | 
24 | CO[C@@]12[C@H](COC(N)=O)C3=C(C(=O)C(C)=C(N)C3=O)N1C[C@@H]1N[C@@H]12 [Mitomycin C] |  | 7.1 | 7.1 |  |  |  | < 0.8 | IC50 ([1]; Homo sapiens, Hepatocyte, 48 h): 14.8 µM
25 | COC(=O)C1=C(C)NC(C)=C(C(=O)OCCN(C)Cc2ccccc2)C1c1cccc([N+](=O)[O-])c1 (stereo not shown) [Nicardipine] |  | 0.08 | 0.08 |  |  |  |  | 
26 | CS(=O)(=O)Nc1ccc([N+](=O)[O-])cc1Oc1ccccc1 [Nimesulide] | 436 | 21.1 | 21.1 |  |  |  | 60.5 | 
27 | CCN(CC)CC#CCOC(=O)C(O)(c1ccccc1)C1CCCCC1 (stereo not shown) [Oxybutynin] |  | 0.022 | 0.0224 |  |  |  |  | 
28 | Cc1ccc(N(CC2=NCCN2)c2cccc(O)c2)cc1 [Phentolamine] | > 100 | 0.09 | 0.09 |  |  |  | > 100 | 
29 | OC(CCN1CCCC1)(c1ccccc1)C1CCCCC1 (stereo not shown) [Procyclidine] | 97.9 | 2.19 | 2.19 |  |  |  | 117 | classification at 50× MOS threshold ([1]; PHH 48 h): false positive
30 | CN(C)C(=O)Oc1ccc[n+](C)c1 [Pyridostigmine] | > 200 | 1.1 | 1.1 |  |  |  | > 100 | 
31 | CN(CCOc1ccc(CC2SC(=O)NC2=O)cc1)c1ccccn1 (stereo not shown) [Rosiglitazone] | > 100 | 1 | 1.04 | 2: High clinical DILI concern (N = 23) | 2. High Clinical DILI Concern | 2. High Clinical DILI Concern |  | FDA DILI Classification DILI severity score [2]: 3; LTKB DILI classification [2]: less DILI concern
32 | CN1C(C(=O)Nc2nccs2)=C(O)c2ccccc2S1(=O)=O [Sudoxicam] | > 100 | 77 | 77.1 |  |  |  | > 100 | 
33 | CC/C(=C(\c1ccccc1)c1ccc(OCCN(C)C)cc1)c1ccccc1 [Tamoxifen] |  | 0.4 | 0.4 |  |  |  |  | 
34 | Clc1ccccc1CN1CCc2sccc2C1 [Ticlopidine] |  | 8.1 | 8.07 |  |  |  |  | 
35 | O=C(O)COc1ccc(C(=O)c2cccs2)c(Cl)c1Cl [Tienilic Acid] | > 100 | 82.7 | 82.7 | 1: Severe clinical DILI (N = 23) | 1. Severe Clinical DILI | 1. Severe Clinical DILI | 567 | 
36 | N[C@@H]1[C@H]2CN(c3nc4c(cc3F)c(=O)c(C(=O)O)cn4-c3ccc(F)cc3F)C[C@@H]12 [Trovafloxacin] | > 125 |  |  |  |  |  | > 125 | 
37 | CCCC(CCC)C(=O)O [Valproic acid] | > 100 | 693 | 693 |  |  |  | > 100 | 
